Experimental data as given in the NIST ThermoML archive (doi:10.1021/je0302304).

Test: xn = mol fraction of the nth substance listed
Details: 101.32 kPa, Liquid

COCCOCCOCCOC [2,5,8,11-tetraoxadodecane] + CCO
mass density [kg/m3]
Details	288.15 K	298.15 K	308.15 K	318.15 K
x1 = 0.0045	796.7	788.2	779.5	770.6
x1 = 0.0085	799.3	790.7	782	773.1
x1 = 0.0125	801.7	793.2	784.4	775.5
x1 = 0.0165	804.2	795.6	786.8	778
x1 = 0.0205	806.6	798	789.2	780.3
x1 = 0.0305	812.4	803.7	794.9	786
x1 = 0.05	823	814.2	805.4	796.4
x1 = 0.1	846.7	837.7	828.8	819.7
x1 = 0.15	866.4	857.3	848.3	839
x1 = 0.2	882.9	873.6	864.5	855.2
x1 = 0.25	896.9	887.7	878.6	869.2
x1 = 0.3	909.2	900	890.7	881.4
x1 = 0.35	919.8	910.5	901.3	891.9
x1 = 0.4	929.2	919.8	910.5	901.1
x1 = 0.4499	937.4	928	918.6	909.2
x1 = 0.5	944.8	935.3	925.9	916.4
x1 = 0.55	951.4	941.9	932.4	922.9
x1 = 0.6	957.3	947.7	938.3	928.8
x1 = 0.65	962.7	953.1	943.7	934.2
x1 = 0.7	967.5	958	948.6	939
x1 = 0.75	972	962.4	953	943.5
x1 = 0.7999	976.1	966.5	957.1	947.5
x1 = 0.8499	979.9	970.3	960.8	951.3
x1 = 0.8998	983.4	973.8	964.3	954.8
x1 = 0.9498	986.7	977.1	967.6	958.1
x1 = 1	989.7	980.1	970.7	961.1
